Data: ChEMBL document CHEMBL1139446, “4,5-Disubstituted-1,3-oxazolidin-2-imine derivatives: a new class of orally bioavailable nitric oxide synthase inhibitor” (Bioorg Med Chem Lett, 2004)

Experiments:
[1] = target: T1, Nitric oxide synthase, inducible (Mus musculus, UniProt P29477); assay: (§1) Inhibition of inducible nitric oxide synthase (iNOS) in mice
T1 sequence (P29477 whole entry): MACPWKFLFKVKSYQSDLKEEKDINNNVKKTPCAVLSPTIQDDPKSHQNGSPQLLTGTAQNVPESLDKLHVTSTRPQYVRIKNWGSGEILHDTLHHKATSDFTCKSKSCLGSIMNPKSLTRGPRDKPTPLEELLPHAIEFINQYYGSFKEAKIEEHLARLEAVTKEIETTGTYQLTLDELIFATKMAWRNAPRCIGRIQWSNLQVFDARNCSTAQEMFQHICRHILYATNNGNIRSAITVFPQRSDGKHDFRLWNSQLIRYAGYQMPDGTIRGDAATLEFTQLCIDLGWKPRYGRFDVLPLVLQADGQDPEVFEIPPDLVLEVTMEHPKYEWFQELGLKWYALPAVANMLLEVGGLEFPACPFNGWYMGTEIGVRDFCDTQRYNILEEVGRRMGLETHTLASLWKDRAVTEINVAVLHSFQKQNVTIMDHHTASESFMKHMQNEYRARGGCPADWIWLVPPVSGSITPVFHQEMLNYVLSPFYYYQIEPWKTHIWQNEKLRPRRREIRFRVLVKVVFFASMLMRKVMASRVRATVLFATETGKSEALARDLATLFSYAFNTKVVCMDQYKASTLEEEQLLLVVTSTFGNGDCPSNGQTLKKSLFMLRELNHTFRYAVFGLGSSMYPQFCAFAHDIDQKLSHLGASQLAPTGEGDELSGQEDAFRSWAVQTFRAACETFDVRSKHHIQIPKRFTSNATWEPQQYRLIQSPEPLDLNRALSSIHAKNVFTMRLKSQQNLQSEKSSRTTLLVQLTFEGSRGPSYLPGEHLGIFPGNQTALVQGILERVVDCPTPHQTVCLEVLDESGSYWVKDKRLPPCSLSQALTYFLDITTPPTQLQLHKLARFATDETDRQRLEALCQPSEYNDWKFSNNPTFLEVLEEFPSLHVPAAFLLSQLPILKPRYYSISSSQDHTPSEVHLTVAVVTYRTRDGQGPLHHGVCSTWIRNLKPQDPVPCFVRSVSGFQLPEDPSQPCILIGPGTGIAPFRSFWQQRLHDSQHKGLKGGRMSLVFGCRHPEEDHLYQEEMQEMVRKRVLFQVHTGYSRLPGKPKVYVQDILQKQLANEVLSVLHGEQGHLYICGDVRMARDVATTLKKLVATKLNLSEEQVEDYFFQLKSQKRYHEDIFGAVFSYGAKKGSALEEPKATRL

[2] = target: Nitric oxide synthase 1 (Mus musculus, UniProt Q9Z0J4); assay: (§2) Inhibition of neuronal nitric oxide synthase (nNOS) in mice
[3] = species on record: Mus musculus; assay: Selectivity ratio of IC50 of nNOS to IC50 of iNOS
[4] = target: T2, Nitric oxide synthase, inducible (Mus musculus) (UniProt P29477); assay: as §1; conditions: concentration not given here
T2 sequence (whole entry): T1 sequence (P29477 whole entry)

[5] = target: Nitric oxide synthase 1 (Mus musculus) (UniProt Q9Z0J4); assay: as §2; conditions: concentration not given here
Nitric oxide synthase 1 (Mus musculus), sequence (Q9Z0J4 whole entry): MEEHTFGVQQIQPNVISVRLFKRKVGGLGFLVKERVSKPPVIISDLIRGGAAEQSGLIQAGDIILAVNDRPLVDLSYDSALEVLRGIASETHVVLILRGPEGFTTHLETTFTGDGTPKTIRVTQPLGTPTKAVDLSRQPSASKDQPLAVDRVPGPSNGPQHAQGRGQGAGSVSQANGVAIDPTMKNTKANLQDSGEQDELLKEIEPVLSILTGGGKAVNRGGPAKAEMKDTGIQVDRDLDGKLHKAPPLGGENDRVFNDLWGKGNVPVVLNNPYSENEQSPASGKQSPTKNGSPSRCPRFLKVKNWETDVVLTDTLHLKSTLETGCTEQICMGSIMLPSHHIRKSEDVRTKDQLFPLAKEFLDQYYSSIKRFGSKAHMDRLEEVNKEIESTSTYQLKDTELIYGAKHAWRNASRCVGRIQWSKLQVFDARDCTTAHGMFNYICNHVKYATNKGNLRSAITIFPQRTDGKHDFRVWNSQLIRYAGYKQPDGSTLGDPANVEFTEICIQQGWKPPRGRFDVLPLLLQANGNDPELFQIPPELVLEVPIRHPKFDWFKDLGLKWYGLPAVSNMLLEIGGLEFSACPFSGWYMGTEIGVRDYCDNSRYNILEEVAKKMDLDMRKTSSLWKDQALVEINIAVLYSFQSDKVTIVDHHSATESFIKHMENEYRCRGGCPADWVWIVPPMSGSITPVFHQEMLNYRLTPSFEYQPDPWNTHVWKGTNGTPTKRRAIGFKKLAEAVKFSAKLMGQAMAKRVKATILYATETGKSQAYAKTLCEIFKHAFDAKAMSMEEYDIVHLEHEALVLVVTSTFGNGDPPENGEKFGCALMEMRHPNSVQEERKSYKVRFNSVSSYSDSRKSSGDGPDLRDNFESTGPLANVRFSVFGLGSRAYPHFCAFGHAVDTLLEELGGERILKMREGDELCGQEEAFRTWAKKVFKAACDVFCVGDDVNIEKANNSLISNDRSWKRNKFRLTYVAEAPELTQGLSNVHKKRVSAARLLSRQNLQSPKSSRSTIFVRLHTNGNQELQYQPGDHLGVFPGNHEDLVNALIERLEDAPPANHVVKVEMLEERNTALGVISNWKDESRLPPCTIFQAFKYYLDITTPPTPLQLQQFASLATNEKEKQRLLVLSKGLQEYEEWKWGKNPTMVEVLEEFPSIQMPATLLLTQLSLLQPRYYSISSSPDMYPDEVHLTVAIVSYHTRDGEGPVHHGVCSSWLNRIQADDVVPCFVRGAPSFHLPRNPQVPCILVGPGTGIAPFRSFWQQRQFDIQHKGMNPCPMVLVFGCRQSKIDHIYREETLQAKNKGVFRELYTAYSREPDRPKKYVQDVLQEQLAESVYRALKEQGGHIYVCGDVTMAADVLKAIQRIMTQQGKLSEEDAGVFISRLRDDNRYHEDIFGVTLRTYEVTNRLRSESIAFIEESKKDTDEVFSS

Nitric oxide synthase 1, sequence (Q9Z0J4 whole entry): as above

Question: Which IC50 [1] does the source give for CCCCC[C@@H]1N=C(N)O[C@H]1C here?
Answer: 500 nM

Question: What about the IC50 [2] of the same molecule?
Answer: 790 nM

Question: What about the Selectivity [3] of the same molecule?
Answer: 1.6

Question: For CC[C@@H]1N=C(N)O[C@H]1CC, which IC50 [1] is on record?
Answer: 56 nM

Question: And the IC50 [2]?
Answer: 2500 nM

Question: What about the Selectivity [3] of the same molecule?
Answer: 45

Question: Which results are given for CCC[C@@H]1N=C(N)O[C@@H]1CCC?
Answer: IC50 [1]: 6800 nM; IC50 [2]: 57000 nM; Selectivity [3]: 8.4

Question: CNC(=N)NCCC[C@H](N)C(=O)O [TILARGININE] was tested. Which IC50 [2] did it give?
Answer: 4300 nM

Question: For CC[C@@H]1N=C(N)O[C@@H]1C, which IC50 [1] is on record?
Answer: 120 nM

Question: What about the IC50 [2] of the same molecule?
Answer: 680 nM

Question: And the Selectivity [3]?
Answer: 5.7

Question: CCC[C@@H]1N=C(N)O[C@H]1CCC was tested. Which IC50 [1] did it give?
Answer: 2500 nM

Question: What about the IC50 [2] of the same molecule?
Answer: 73000 nM

Question: What about the Selectivity [3] of the same molecule?
Answer: 29

Question: How did the IC50 [1] turn out when CCC1CN=C(N)O1 (stereo not given) was run?
Answer: 280 nM

Question: What about the IC50 [2] of the same molecule?
Answer: 1800 nM

Question: What about the Selectivity [3] of the same molecule?
Answer: 6.4

Question: What does the source list for CC[C@H]1OC(N)=N[C@H]1C?
Answer: IC50 [1]: 160 nM; IC50 [2]: 850 nM; Selectivity [3]: 5.3

Question: CC[C@@H]1N=C(N)O[C@@H]1CC was tested. Which IC50 [1] did it give?
Answer: 130 nM

Question: And the IC50 [2]?
Answer: 1200 nM

Question: CCCCC[C@@H]1N=C(N)O[C@@H]1C was tested. Which IC50 [1] did it give?
Answer: 230 nM

Question: What about the IC50 [2] of the same molecule?
Answer: 3600 nM

Question: What about the Selectivity [3] of the same molecule?
Answer: 16

Question: With CC1COC(N)=N1 (stereo not given) as the molecule, how does the IC50 [1] read?
Answer: 1500 nM

Question: What about the IC50 [2] of the same molecule?
Answer: 9800 nM

Question: What about the Selectivity [3] of the same molecule?
Answer: 6.5

Question: With CCC[C@@H]1N=C(N)O[C@@H]1C as the molecule, how does the IC50 [1] read?
Answer: 41 nM

Question: What about the IC50 [2] of the same molecule?
Answer: 920 nM

Question: What about the Selectivity [3] of the same molecule?
Answer: 22

Question: Which IC50 [1] does the source give for CC[C@@H]1OC(N)=N[C@H]1C here?
Answer: 120 nM

Question: What about the IC50 [2] of the same molecule?
Answer: 1700 nM

Question: And the Selectivity [3]?
Answer: 14

Question: How did the IC50 [1] turn out when N=C(NCCC[C@H](N)C(=O)O)N[N+](=O)[O-] [NITROARGININE] was run?
Answer: 80000 nM

Question: What about the IC50 [2] of the same molecule?
Answer: 500 nM

Question: What about the Selectivity [3] of the same molecule?
Answer: 0.0063

Question: With C[C@H]1CC(N)=N[C@@H]2[C@H](Cl)[C@@H]21 as the molecule, how does the Selectivity [3] read?
Answer: 5

Question: With CCC1COC(N)=N1 (stereo not given) as the molecule, how does the IC50 [1] read?
Answer: 1600 nM

Question: What about the IC50 [2] of the same molecule?
Answer: 2800 nM

Question: What about the Selectivity [3] of the same molecule?
Answer: 1.8

Question: For NC1=NCC(CBr)O1 (stereo not given), which IC50 [1] is on record?
Answer: 500 nM

Question: And the IC50 [2]?
Answer: 400 nM

Question: What about the Selectivity [3] of the same molecule?
Answer: 0.8

Question: For NC1=NCCO1, which IC50 [1] is on record?
Answer: 7900 nM

Question: What about the IC50 [2] of the same molecule?
Answer: 34000 nM

Question: What about the Selectivity [3] of the same molecule?
Answer: 4.3

Question: How did the IC50 [1] turn out when C[C@H]1CC(=N)N[C@@H]2[C@H](Cl)[C@@H]21 was run?
Answer: 3 nM

Question: What about the IC50 [2] of the same molecule?
Answer: 15 nM

Question: With CC[C@@H]1N=C(N)O[C@H]1C as the molecule, how does the IC50 [1] read?
Answer: 170 nM

Question: And the IC50 [2]?
Answer: 2300 nM

Question: And the Selectivity [3]?
Answer: 14

Question: Which IC50 [1] does the source give for CC1CN=C(N)O1 (stereo not given) here?
Answer: 74 nM

Question: What about the IC50 [2] of the same molecule?
Answer: 1400 nM

Question: What about the Selectivity [3] of the same molecule?
Answer: 19

Question: C[C@@H]1N=C(N)O[C@@H]1C was tested. Which IC50 [1] did it give?
Answer: 150 nM

Question: What about the IC50 [2] of the same molecule?
Answer: 1600 nM

Question: What about the Selectivity [3] of the same molecule?
Answer: 11

Question: What does the source list for CCC[C@@H]1N=C(N)O[C@H]1C?
Answer: IC50 [1]: 120 nM; IC50 [2]: 570 nM; Selectivity [3]: 4.8

Question: Which inhibition [4] does the source give for NC1=NC(c2ccccc2)CO1 (stereo not given) here?
Answer: 28%

Question: And the inhibition [5]?
Answer: 18%
